Source: patent US7563766B2, “Methods and compositions for the promotion of a hair growth utilizing actin binding peptides” (The United States of America as represented by the …, priority 2002, dated 2009)
“Also recorded” adds a separate entry of the source. Ends that are not written are not given here.

Columns and labels:
[1] = system: male and female androgenetic patients; conditions: human, in vivo; cited from earlier work
chick aortic arches = assay: Chick aortic arch vessel sprouting assay; assay type: cell-based; set-up: key to Sprouting: − = no activity; +/− = low activity; + = active; ++ = high activity; conditions: for effect of actin on thymosin β4-mediated sprouting: 5-50 nM
Description: Chick aortic arch assay—The aortic arch of 13-day-old chick embryos was removed and placed in RPMI 1640. After removal of surrounding connective tissue, transverse sections of the arch were made (1 mm). The resulting aortic rings were carefully attached to the bottom of a 48-well plate, one ring per well, with 20-30 μl of Matrigel (Collaborative Biomedical Products). The rings were placed so that the lumen of each ring could be seen. More Matrigel was added onto the top of the rings to seal them in place. A 100 μl volume of human endothelial—SFM basal growth medium (Invitrogen) containing 1% penicillin streptomycin was added to each well. Thymosin β4, peptide fragments, and exogenous actin (Sigma Chemical Co.) were added to wells in serum-free medium, bringing the final volume of each well to 400 μl. ECGS (200 μg/ml) was used as a positive control. The plates were incubated for 24 hr at 37° C. Rings were fixed and stained with Diff-Quik solution II. Sprouting was scored in a blind assessment by an observer using 10× magnification on an Olympus microscope. Six wells were used for each condition tested, and each assay was done three times.

hair follicles = assay: Topical thymosin β4 or T-3 on shaved aged BALB/c mice; assay type: in vivo, mouse; conditions: 5 μg/50 μl in water
Description: These mice are considered highly aged as they are alive beyond the normal mouse life expectancy. […] The mice were shaved and treated as described above with thymosin β4 at the time of shaving and 48 hours later. At day 7, the skin was harvested and examined histologically, as described above in Example 1.
The T-3 fragment was produced using an automated peptide synthesizer, as is well known in the art.
The synthetic T-3 peptide was applied in a water solution/mixture at a concentration/dose of 5 μg/50 μl. […] Thus, a fragment of thymosin β4 comprising these amino acids is useful in hair regeneration compositions.

[2] = system: human umbilical vein endothelial cells; assay: HUVEC migration, Boyden chamber assay; assay type: cell-based
Description: (§1) Cells—HUVECs were isolated and used at passages 2-5. Grant et al., J. Cell Sci. 108:3685-3694 (1995). The cells were cultured in RPMI 1640 (Invitrogen, Carlsbad, Calif.) supplemented with 20% bovine calf serum (Hyclone Laboratories, Logan, Utah), 200 μg/ml of endothelial cell growth supplement (ECGS) (Collaborative Biomedical Products, Bedford, Mass.), 0.8 U/ml heparin sodium (Fisher Scientific, Pittsburgh, Pa.), penicillin/streptomycin (Invitrogen, Carlsbad, Calif.), 10 μg/ml gentamycin (Invitrogen, Carlsbad, Calif.), and 1% fungizone (Invitrogen, Carlsbad, Calif.).
Boyden chamber assay—HUVEC migration assays were conducted in a 48-well micro-chemotaxis chamber (Neuro Probe Inc., Cabin John, Md.) as previously described in Salcedo et al., J. Immunol. 166:7571-7578 (2001). Briefly, PVP-free polycarbonate membranes with 8 μm pores were coated with 50 μg/ml of rat tail collagen (BD Biosciences, Bedford, Mass.) in RPMI 1640 that contained 25 mM HEPES (Invitrogen, Carlsbad, Calif.) at 4° C. overnight. The membranes were dried at least 1 hr prior to use. HUVECs were serum-starved for 2 hr, harvested using Versene (Invitrogen, Carlsbad, Calif.), and resuspended in binding medium that contained RPMI 1640 with 1% BSA and 25 mM HEPES. The lower wells of the chamber were loaded with 1, 10, 100, and 1000 ng/ml of thymosin β4 or peptide fragments that were diluted in binding medium. Basic fibroblast growth factor (bFGF) (200 ng/ml) was used as a positive control. Cells were added to the upper portion of the chamber at a concentration of 50,000 cells per well. The chambers were incubated at 37° C. for 4 hr. The filters were fixed and stained using Diff-Quik (VWR, Bridgeport, N.J.). The cells that successfully migrated through the pores of the membrane were manually quantitated using a CK-2 Olympus microscope at 10× magnification. Each condition was assayed in triplicate, and the assay was repeated twice.

HUVEC = HUVEC cell adhesion assay; assay type: cell-based, human
Description: as §1
Cell adhesion—In order to determine which ions are needed for HUVEC adhesion, Laminin-1 peptide (25 ng in 50 μl) and two test concentrations of Tβ4 (100 ng and 500 ng in 50 μl) in 0.1 M carbonate buffer, pH 9.4, were bound to the bottom of U-bottom 96-well plates overnight at 4° C. Wells were then washed twice with PBS and blocked with 150 μl of 3% BSA in PBS (Sigma Chemical Co., St. Louis, Mo.) at room temperature for 30 min. […] The remaining cells were stained with 0.2% crystal violet in 20% methanol, washed in water to remove excess stain, dried overnight at 37° C., and lysed with 10% SDS for 10 min, and the plate OD was read at 600 nm. (Molecular Devices precision microplate reader). […]

Q: Which side effects [1] does the source give for `Nc1cc(N2CCCCC2)nc(N)[n+]1[O-]` [minoxidil] here?
A: scalp irritation and increased facial hair

Q: With LKKTETQ [Peptide T-3] as the compound, how does the “vessel sprouting, in words” value (chick aortic arches) read?
A: fully active

Q: And the Sprouting (chick aortic arches; Table 2 score)?
A: ++

Q: And the “activity in the assays (endothelial cell migration and vessel sprouting)” value (chick aortic arches; statement covers both migration and sprouting assays)?
A: generally highly active

Q: What about the “hair follicle development vs water alone” value (hair follicles) of the same compound?
A: increased hair follicle development

Q: What about the “endothelial cell migration, in words” value [2] of the same compound?
A: fully active

Q: For actin [reference compound], which “effect of actin on laminin-1-mediated adhesion” value (HUVEC; control) is on record?
A: no effect

Q: What about the “effect of actin on cell adhesion to thymosin β4” value (HUVEC; soluble actin added, 5-50 nM) of the same compound?
A: inhibited; also recorded: blocked adhesion

Q: And the “vessel sprouting, in words” value (chick aortic arches)?
A: angiogenic activity

Q: What about the “effect of actin on ECGS-mediated vessel sprouting” value (chick aortic arches; exogenous actin added) of the same compound?
A: did not inhibit

Q: What about the “effect of actin on thymosin β4-mediated sprouting” value (chick aortic arches; exogenous actin added) of the same compound?
A: significantly inhibited

Q: What about the “effect of actin on thymosin β4-mediated sprouting” value (chick aortic arches; exogenous actin added, listed as soluble actin) of the same compound?
A: inhibited
